Where “and” joins values, the source holds several entries; their conditions need not be identical. Identical values can stand only once. Entries after “also recorded” stand apart in the source; their conditions may differ.
How the values were obtained:
[1] = L-012 assay: inhibition of SIN-1 generated peroxynitrite induced luminescence/fluorescence of L-012; type: biochemical; details: 15 minute time point; average of three plates
Experimental: Luminol like compound “L-012” is a chemilumescent probe that is activated by the presence of a ROS and/or RNS such as peroxynitrite. In this assay L-012 was oxidized by the addition of 3-Morpholino-sydnonimine (“SIN-1”), a known peroxynitrite generator. The emitted fluorescence was directly proportional to the concentration of SIN-1. The compounds of the invention were then assessed for their ability to scavenge peroxynitrite by blocking the increase of peroxynitrite induced fluorescence. Concentrations of compound producing 50% inhibition of the fluorescence signal (IC50 values) were calculated by testing the compounds of the invention at various concentrations and averaging the IC50 of three plates.
The following solutions were added to white polystyrene, non-sterile 96-well plate (Costar #3912): 196 μL of 50 μM L-012; 2 μL of the test compound; and 24 μL of 500 mM SIN-1. Fresh stock of 50 μM L-012 in PBS pH 7.4 was made for each 96 well plate that was analyzed. The plates were read in a FlexStation3 (Molecular Devices) using the luminescent mode at 37° C. for 30 min, with a measurement every 30 seconds and an integration time of 100 msec.
Luminescence signal was recorded by the FlexStation3 kinetically at 37° C. for 30 minutes, with a measurement every 30 seconds and an integration time of 100 msec. The data in rows A and H were dropped from each plate to exclude the possibility of an ‘edge effect’. Thus, each test compound had 3 replicates per plate.

[2] = tested on: fentanyl analgesia (Hargreaves); assay: Preservation of fentanyl analgesia in Hargreaves thermal plantar model; type: in vivo; details: rat; compound IV 15 min before fentanyl 25 μg/kg; FIG. 2
[3] = tested on: capsaicin-mediated hyperalgesia; assay: Capsaicin-induced hyperalgesia; type: in vivo; details: rat; IV prior to intra-plantar capsaicin; FIG. 8
[4] = tested on: hyperalgesia following incisional surgery; assay: Established incisional hyperalgesia, dosing 24 hours after surgery; type: in vivo; details: rat; given 24 hours after surgical incision; FIG. 10
[5] = tested on: FCA induced thermal hyperalgesia; assay: FCA induced thermal hyperalgesia (Hargreaves); type: in vivo, rat; details: for Paw withdrawal latency: individual rats, FIG. 18A
Experimental: Compound 2 was evaluated in the rat Freund's complete adjuvant (FCA) model of inflammatory pain. The rat Freund's complete adjuvant (FCA) intraplantar model of inflammatory pain produces behaviors similar to those observed in patients and has been widely used to assess novel pharmacological treatments (Lam et al., 2008, J Ethnopharmacol. 120:44-50). The positive control was celecoxib (TRC, Montreal), and the negative control was vehicle (0.5% methyl cellulose, in phosphate buffered saline). […] The Hargreaves apparatus was obtained from Ugo Basile, Italy. The Freund's complete adjuvant was obtained from Sigma, St. Louis, and the electronic von frey was obtained from Stoelting, Ill. For this assay, paw withdrawal latency to a thermal stimulus was assessed using a radiant heat source (Ugo Basile, Italy) aimed at the plantar surface of the left hind paw (Hargreaves test; […] Paw withdrawal thresholds to a non-noxious tactile stimulus was assessed using an electronic von Frey apparatus that presented an increasing mechanical force to the plantar surface of the hind paw. Paw volume was measured by displacement of water and assuming a tissue density equal to that of water. […] Celecoxib (30 mg/kg p.o.) served as the positive control. […] After induction of anesthesia, the injection site was prepared in a sterile manner and 100 μl of a 50% suspension of FCA injected. After injection, animals were weighed and allowed to recover before being returned to their home cages. Statistical significance was determined on untransformed data using a two-way analysis of variance (Graphpad Prism, NC). Significant main effects were analyzed further by subsequent Bonferronni post-hoc test. The level of significance was set at p<0.05. Data are shown as mean±S.E.M. (with an asterisk to denote significance as compared to vehicle treated controls).

[6] = tested on: spinal nerve ligation induced tactile allodynia; assay: Spinal nerve ligation (SNL, Chung model) induced tactile allodynia (von Frey filaments); type: in vivo, rat; details: for Paw threshold / Paw withdrawal threshold: individual animals; for Paw withdrawal threshold: non-fasted
[7] = tested on: Carrageenan-induced thermal hyperalgesia; assay: Carrageenan-induced thermal hyperalgesia (Hargreaves); type: in vivo, rat; details: for Paw withdrawal latency: cut-off 40 s, individual animals

CC1(C)SC(Nc2ccccc2O)=N[C@@H]1C(=O)O [Compound 2, (R)-2-(2-hydroxyphenylamino)-thiazoline-5,5-dimethyl-4-carboxylic acid]
IC50 [1]: 0.13 µM
preservation of fentanyl analgesia, Hargreaves thermal hyperalgesia model [2]: dose-dependently preserves fentanyl analgesia
effect on capsaicin-mediated hyperalgesia [3]: inhibits capsaicin-mediated hyperalgesia
reversal of hyperalgesia following incisional surgery [4]: reverses hyperalgesia following incisional surgery
Paw withdrawal latency ([5]; baseline (prior to FCA)): 16.6 s and 17.55 s and 20.74 s and 20.9 s and 20.6 s and 19.33 s
Paw withdrawal latency ([5]; day 1, compound 2 25 mg/kg i.v. preemptive, 25 mg/kg): 14.4 s and 156.3 s and 15.1 s (2×) and 15.7 s and 22.7 s
Paw withdrawal latency ([5]; day 3, compound 2 25 mg/kg i.v. preemptive, 25 mg/kg): 12.5 s and 19.12 s and 19.5 s (2×) and 15.7 s and 17.7 s
Paw withdrawal latency ([5]; day 4, compound 2 25 mg/kg i.v. preemptive, 25 mg/kg): 14 s and 16.25 s and 16.51 s (2×) and 16.6 s and 18.2 s
FCA thermal hyperalgesia (finding in words) ([5]; rat, single dose 25 mg/kg i.v. preemptive, significant 72 hours post-FCA, 25 mg/kg): prevented the development; also recorded: significantly prevented
Paw threshold ([6]; FIG. 25, compound 2 30 mg/kg p.o. once on the day of surgery, 1 wk, 30 mg/kg): 1.85 g and 1.18 g and 2.81 g and 4.47 g and 6.4 g and 2.2 g and 15 g and 4.25 g
Paw threshold ([6]; FIG. 25, compound 2 30 mg/kg p.o. once on the day of surgery, 2 wks, 30 mg/kg): 1.65 g and 2.81 g and 2 g (2×) and 3.73 g and 0.99 g and 5.56 g and 5.04 g
Paw threshold ([6]; FIG. 25, compound 2 30 mg/kg p.o. once on the day of surgery, Pre-Sx): 15 g
Paw threshold ([6]; FIG. 26, compound 2 30 mg/kg p.o. QD on days 1-5 post-surgery, 1 wk, 30 mg/kg): 15 g (4×) and 11.41 g and 3.13 g and 1.18 g and 6.66 g
Paw threshold ([6]; FIG. 26, compound 2 30 mg/kg p.o. QD on days 1-5 post-surgery, 2 wks, 30 mg/kg): 13.96 g (2×) and 4.25 g and 5.37 g and 11.69 g and 2.8 g and 8.44 g and 7.94 g
Paw threshold ([6]; FIG. 26, compound 2 30 mg/kg p.o. QD on days 1-5 post-surgery, 3 wks, 30 mg/kg): 7.53 g and 6.64 g and 4.98 g and 2.2 g and 4.4 g and 2.38 g and 10.31 g and 15 g
Paw threshold ([6]; FIG. 26, compound 2 30 mg/kg p.o. QD on days 1-5 post-surgery, Pre-Sx, 30 mg/kg): 15 g (7×) and 11.69 g
Paw withdrawal threshold ([6]; compound 2 10 mg/kg p.o., 1 hr (D1), 10 mg/kg): 1.56 g and 4.98 g and 4.25 g (2×) and 15 g and 3.13 g and 2.81 g and 4.4 g
Paw withdrawal threshold ([6]; compound 2 10 mg/kg p.o., 1 hr (D2), 10 mg/kg): 1.31 g and 1.85 g (3×) and 2.38 g and 2.64 g and 1.65 g and 1.4 g
Paw withdrawal threshold ([6]; compound 2 10 mg/kg p.o., 1 hr (D3), 10 mg/kg): 0.44 g and 3.67 g and 1.85 g and 7.94 g and 3.33 g and 2 g and 2.81 g and 4.4 g
Paw withdrawal threshold ([6]; compound 2 10 mg/kg p.o., 3 hrs (D1), 10 mg/kg): 2 g and 7.94 g and 1.4 g and 15 g and 2.81 g and 2.64 g and 1.85 g and 3.57 g
Paw withdrawal threshold ([6]; compound 2 10 mg/kg p.o., 3 hrs (D2), 10 mg/kg): 0.4 g and 1.56 g (2×) and 11.69 g and 2.81 g and 2.37 g and 2 g and 3.71 g
Paw withdrawal threshold ([6]; compound 2 10 mg/kg p.o., 3 hrs (D3), 10 mg/kg): 0.99 g and 2.37 g and 1.56 g and 2.38 g and 2.81 g (2×) and 0.65 g and 3.33 g
Paw withdrawal threshold ([6]; compound 2 10 mg/kg p.o., Pre-Drug, 10 mg/kg): 2.2 g and 3.13 g (2×) and 4.25 g and 3.58 g and 3.73 g and 4.4 g and 2.64 g
Paw withdrawal threshold ([6]; compound 2 10 mg/kg p.o., Pre-Sx, 10 mg/kg): 11.69 g and 15 g (7×)
Paw withdrawal threshold ([6]; compound 2 50 mg/kg p.o., 1 hr (D1), 50 mg/kg): 2.81 g (2×) and 6.64 g and 5.56 g (2×) and 3.67 g and 4.23 g and 4.98 g
Paw withdrawal threshold ([6]; compound 2 50 mg/kg p.o., 1 hr (D2), 50 mg/kg): 1.19 g and 2.81 g and 3.12 g and 7.94 g
Paw withdrawal threshold ([6]; compound 2 50 mg/kg p.o., 3 hrs (D1), 50 mg/kg): 1.18 g and 3.13 g (2×) and 3.33 g and 6.66 g (2×) and 6.64 g and 4.7 g
Paw withdrawal threshold ([6]; compound 2 50 mg/kg p.o., Pre-Drug, 50 mg/kg): 2.81 g (2×) and 3.33 g and 3.73 g and 2.2 g and 5.04 g and 4.25 g and 3.58 g
Paw withdrawal threshold ([6]; compound 2 50 mg/kg p.o., Pre-Sx): 15 g
development of SNL tactile allodynia, single administration ([6]; rat, 30 mg/kg p.o. immediately following surgery, assessed 1 and 2 weeks later, FIG. 25): a significant difference between treated animals and vehicle controls was not noted
development of SNL tactile allodynia, repeated administration ([6]; rat, 30 mg/kg p.o. once a day for 5 days starting on day of surgery, 1, 2 and 3 weeks post surgery, FIG. 26): significant reduction in tactile allodynia
reversal of SNL tactile allodynia, fasted animals, subsequent administrations ([6]; rat, 50 mg/kg p.o., 48 hrs later, FIG. 24): failed to produce a statistically significant effect
reversal of SNL tactile allodynia, non-fasted animals ([6]; rat, 10 and 50 mg/kg p.o., any time point after any of three administrations, FIG. 23): did not produce a statistically significant difference from vehicle treated animals
Paw withdrawal latency ([7]; compound 2 10 mg/kg p.o. preemptive (15 minutes prior to carrageenan), baseline prior to carrageenan (first line), 10 mg/kg): 20.94 s and 40 s and 25.09 s and 26.96 s and 13.66 s and 23.25 s
Paw withdrawal latency ([7]; compound 2 10 mg/kg p.o. preemptive, 4 hours post carrageenan (second line), 10 mg/kg): 8.1 s and 5.07 s and 20.71 s and 12.18 s and 11.94 s and 9.38 s
Paw withdrawal latency ([7]; compound 2 30 mg/kg p.o. preemptive, 4 hours post carrageenan (second line), 30 mg/kg): 11.57 s and 16.63 s and 6.81 s and 11 s and 32.38 s and 11.6 s
Paw withdrawal latency ([7]; compound 2 30 mg/kg p.o. preemptive, baseline prior to carrageenan (first line), 30 mg/kg): 27.75 s and 15.78 s and 35.57 s and 23.26 s and 18.37 s and 25.78 s
carrageenan-induced thermal hyperalgesia, preemptive (finding in words) ([7]; rat, 10 and 30 mg/kg p.o. 15 minutes prior to carrageenan): did not significantly prevent
